ChEMBL document CHEMBL5137022, “Antitumor Activity of Rutaecarpine in Human Colorectal Cancer Cells by Suppression of Wnt/β-Catenin Signaling” (J Nat Prod, 2022)
The source made the active and inactive calls. No cut-off for these calls is given here.

Legend:
Mus musculus [1] = test: Downregulation of N-cadherin expression in tumor of BALB/c mouse xenografted with human LS174T cells at 10 to 30 mg/kg, ip administered 3 times per week for 21 days by immunohistochemical based analysis; assay type: functional, organism-based; conditions: dose 10-30 mg/kg, time 21.0 day
Mus musculus [2] = test: Downregulation of c-Myc expression in tumor of BALB/c mouse xenografted with human LS174T cells at 10 to 30 mg/kg, ip administered 3 times per week for 21 days by immunohistochemical based analysis; assay type: functional, organism-based; conditions: dose 10-30 mg/kg, time 21.0 day
LS174T [3] = test: Antitumor activity against human LS174T cells xenografted in BALB/c nude mouse assessed as reduction in tumor weight at 30 mg/kg, ip administered 3 times per week for 21 days by electronic caliper method; assay type: functional; set-up: scale not given: the % may be the effect or the level left; conditions: time 21 day
LS174T [4] = test: Downregulation of N-cadherin expression in human LS174T cells at up to 8 uM incubated for 24 hrs by Western blot analysis; assay type: functional, cell-based
LS174T [5] = test: Induction of cell cycle arrest in human LS174T cells assessed as accumulation of cells at G2/M phase at 20 uM measured at 36 hrs by RNase A/propidium iodide staining based flow cytometric analysis (reference value: 12.9 %); assay type: functional
Mus musculus [6] = test: Downregulation of N-cadherin expression in tumor of BALB/c mouse xenografted with human LS174T cells at 10 to 30 mg/kg, ip administered 3 times per week for 21 days by Western blot analysis; assay type: functional, organism-based; conditions: dose 10-30 mg/kg, time 21.0 day
LS174T [7] = test: Induction of cell cycle arrest in human LS174T cells assessed as accumulation of cells at G0/G1 phase at 20 uM measured at 24 hrs by RNase A/propidium iodide staining based flow cytometric analysis (reference value: 74.8 %); assay type: functional
LS174T [8] = test: Induction of cell cycle arrest in human LS174T cells assessed as accumulation of cells at G2/M phase at 10 uM measured after 24 hrs by RNase A/propidium iodide staining based flow cytometric analysis (reference value: 12.2 %); assay type: functional
LS174T [9] = test: Induction of cell cycle arrest in human LS174T cells assessed as downregulation of cyclin E expression measured after 24 hrs by Western blot analysis; assay type: functional, cell-based; conditions: dose 5-20 µM, DDE = dose-dependent effect
LS174T [10] = test: Induction of apoptosis in human LS174T cells assessed as upregulation of cleaved caspase-3 expression measured after 48 hrs by Western blot analysis; assay type: functional, cell-based; conditions: dose 20-40 µM, DDE = dose-dependent effect
LS174T [11] = test: Induction of cell cycle arrest in human LS174T cells assessed as downregulation of CDK2 expression measured after 24 hrs by Western blot analysis; assay type: functional, cell-based; conditions: dose 5-20 µM, DDE = dose-dependent effect
LS174T [12] = test: Induction of cell cycle arrest in human LS174T cells assessed as accumulation of cells at sub-G1 phase at 20 uM measured at 48 hrs by RNase A/propidium iodide staining based flow cytometric analysis (reference value: 0.7 %); assay type: functional
[13] = Toxicity in BALB/c nude mouse xenografted with human LS174T cells assessed as effect on body weight at 30 mg/kg, IP administered 3 times per week for 21 days; assay type: organism-based; conditions: in vivo, 504 h, time 21 day
LS174T [14] = test: Downregulation of beta-catenin expression in human LS174T cells at 2.5 to 20 uM incubated for 24 hrs by Western blot analysis; assay type: functional, cell-based; conditions: dose 2.5-20 µM
LS174T [15] = test: Inhibition of cell migration in human LS174T cells assessed as reduction in wound closure incubated for 24 hrs by wound healing assay; assay type: functional, cell-based; conditions: dose 2-8 µM, DDE = dose-dependent effect
LS174T [16] = test: Induction of cell cycle arrest in human LS174T cells assessed as accumulation of cells at G2/M phase at 20 uM measured at 24 hrs by RNase A/propidium iodide staining based flow cytometric analysis (reference value: 12.9 %); assay type: functional
LS174T [17] = test: Downregulation of snail expression in human LS174T cells at up to 8 uM incubated for 24 hrs by Western blot analysis; assay type: functional, cell-based
LS174T [18] = test: Downregulation of c-Myc expression in human LS174T cells at 2.5 to 20 uM incubated for 24 hrs by Western blot analysis; assay type: functional, cell-based; conditions: dose 2.5-20 µM
LS174T [19] = test: Downregulation of MMP-7 expression in human LS174T cells at up to 8 uM incubated for 24 hrs by Western blot analysis; assay type: functional, cell-based
LS174T [20] = test: Antitumor activity against human LS174T cells xenografted in BALB/c nude mouse assessed as reduction in tumor weight at 10 mg/kg, ip administered 3 times per week for 21 days by electronic caliper method; assay type: functional; set-up: scale not given: the % may be the effect or the level left; conditions: time 21 day
LS174T [21] = test: Induction of cell cycle arrest in human LS174T cells assessed as accumulation of cells at sub-G1 phase at 20 uM measured at 12 hrs by RNase A/propidium iodide staining based flow cytometric analysis (reference value: 0.7 %); assay type: functional
LS174T [22] = test: Induction of apoptosis in human LS174T cells assessed as downregulation of survivin expression measured after 48 hrs by Western blot analysis; assay type: functional, cell-based; conditions: dose 20-40 µM, DDE = dose-dependent effect
SW480 = test: Antiproliferative activity against human SW480 cells harboring wild type beta-catenin assessed as reduction in cell viability measured after 72 hrs by SRB assay; assay type: functional, cell-based; conditions: SW480, 72 h
LS174T [23] = test: Induction of apoptosis in human LS174T cells assessed as upregulation of cleaved caspase-9 expression measured after 48 hrs by Western blot analysis; assay type: functional, cell-based; conditions: dose 20-40 µM, DDE = dose-dependent effect
LS174T [24] = test: Induction of cell cycle arrest in human LS174T cells assessed as accumulation of cells at G0/G1 phase at 10 uM measured after 24 hrs by RNase A/propidium iodide staining based flow cytometric analysis (reference value: 71.7 %); assay type: functional
LS174T [25] = test: Induction of cell cycle arrest in human LS174T cells assessed as accumulation of cells at S phase at 20 uM measured after 24 hrs by RNase A/propidium iodide staining based flow cytometric analysis (reference value: 14.5 %); assay type: functional
Mus musculus [26] = test: Downregulation of MMP-7 expression in tumor of BALB/c mouse xenografted with human LS174T cells at 10 to 30 mg/kg, ip administered 3 times per week for 21 days by Western blot analysis; assay type: functional, organism-based; conditions: dose 10-30 mg/kg, time 21.0 day
Mus musculus [27] = test: Downregulation of c-myc protein expression in tumor of BALB/c mouse xenografted with human LS174T cells at 10 to 30 mg/kg, ip administered 3 times per week for 21 days by Western blot analysis; assay type: functional, organism-based; conditions: dose 10-30 mg/kg, time 21.0 day
LS174T [28] = test: Induction of cell cycle arrest in human LS174T cells assessed as downregulation of CDK6 expression measured after 24 hrs by Western blot analysis; assay type: functional, cell-based; conditions: dose 5-20 µM, DDE = dose-dependent effect
LS174T [29] = test: Induction of cell cycle arrest in human LS174T cells assessed as accumulation of cells at G2/M phase at 20 uM measured after 24 hrs by RNase A/propidium iodide staining based flow cytometric analysis (reference value: 12.2 %); assay type: functional
Mus musculus [30] = test: Downregulation of snail protein expression in tumor of BALB/c mouse xenografted with human LS174T cells at 10 to 30 mg/kg, ip administered 3 times per week for 21 days by Western blot analysis; assay type: functional, organism-based; conditions: dose 10-30 mg/kg, time 21.0 day
LS174T [31] = test: Inhibition of Wnt/beta-catenin transactivation signalling in human LS174T cells transfected with renilla luciferase and TOPFlash reporter gene incubated for 24 hrs by dual-luciferase assay; assay type: cell-based; conditions: dose 2.5-20 µM, DDE = dose-dependent effect
LS174T [32] = test: Induction of cell cycle arrest in human LS174T cells assessed as accumulation of cells at G2/M phase at 20 uM measured at 48 hrs by RNase A/propidium iodide staining based flow cytometric analysis (reference value: 12.9 %); assay type: functional

In the case of `O=c1c2ccccc2nc2n1CCc1c-2[nH]c2ccccc12` [RUTAECARPINE], the Activity (Mus musculus [1]) is reported as “Active”, the Activity (Mus musculus [2]) is reported as “Active” and the Activity (LS174T [3]) is reported as 41.5%. For the same compound, the Activity (LS174T [4]) was “Active”, the Activity (LS174T [5]) was 4.5% and the Activity (Mus musculus [6]) was “Active”. For the same compound, the Activity (LS174T [7]) was 89.5%, the Activity (LS174T [8]) was 9.6% and the Activity (LS174T [9]) was “Dde”. For the same compound, the Activity (LS174T [10]) was “Dde”, the Activity (LS174T [11]) was “Dde” and the Activity (LS174T [12]) was 13.9%. For the same compound, the Activity [13] was “Non-Toxic”, the Activity (LS174T [14]) was “Active” and the inhibition (LS174T [15]) was “Dde”. For the same compound, the Activity (LS174T [16]) was 5.6%, the Activity (LS174T [17]) was “Active” and the Activity (LS174T [18]) was “Active”. The Activity (LS174T [19]) was “Active”, the Activity (LS174T [20]) was 68.3% and the Activity (LS174T [21]) was 0.5%. The Activity (LS174T [22]) was “Dde”, the IC50 (SW480) was greater than 50 µM and the Activity (LS174T [23]) was “Dde”. For the same compound, the Activity (LS174T [24]) was 81.6%, the Activity (LS174T [25]) was 4.1% and the Activity (Mus musculus [26]) was “Active”. The Activity (Mus musculus [27]) was “Active”, the Activity (LS174T [28]) was “Dde” and the Activity (LS174T [29]) was 7%. The Activity (Mus musculus [30]) was “Active”, the inhibition (LS174T [31]) was “Dde” and the Activity (LS174T [32]) was 4.4%.
